# According to PubChem BioAssay (NCI):
#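 Growth conditions: 96-well plates. Treatment: test compound, 48 hours, 5 concentrations. Analysis: linear interpolation between bracketing concentrations; unreached endpoints set to highest concentration. Abbreviation: GI50, concentration required for 50% inhibition of growth. At the TGI there is no net growth.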
# Tests used:
# Test in all cases: growth of human tumour cells (NCI), 48 h
# 786-0 renal = tested on: 786-0 renal
# A498 renal = tested on: A498 renal
# A549 NSCLC = tested on: A549 NSCLC
# ACHN renal = tested on: ACHN renal
# BT-549 breast = tested on: BT-549 breast
# CAKI-1 renal = tested on: CAKI-1 renal
# CCRF-CEM leukemia = tested on: CCRF-CEM leukemia
# COLO 205 colon = tested on: COLO 205 colon
# DU-145 prostate = tested on: DU-145 prostate
# EKVX NSCLC = tested on: EKVX NSCLC
# HCC-2998 colon = tested on: HCC-2998 colon
# HCT-116 colon = tested on: HCT-116 colon
# HCT-15 colon = tested on: HCT-15 colon
# HL-60(TB) leukemia = tested on: HL-60(TB) leukemia
# HOP-62 NSCLC = tested on: HOP-62 NSCLC
# HOP-92 NSCLC = tested on: HOP-92 NSCLC
# HS 578T breast = tested on: HS 578T breast
# HT29 colon = tested on: HT29 colon
# IGROV1 ovarian = tested on: IGROV1 ovarian
# K-562 leukemia = tested on: K-562 leukemia
# KM12 colon = tested on: KM12 colon
# LOX IMVI melanoma = tested on: LOX IMVI melanoma
# M14 melanoma = tested on: M14 melanoma
# MALME-3M melanoma = tested on: MALME-3M melanoma
# MCF7 breast = tested on: MCF7 breast
# MDA-MB-231 breast = tested on: MDA-MB-231 breast
# MDA-MB-435 = tested on: MDA-MB-435
# MOLT-4 leukemia = tested on: MOLT-4 leukemia
# NCI-H226 lung = tested on: NCI-H226 lung
# NCI-H23 lung = tested on: NCI-H23 lung
# NCI-H460 lung = tested on: NCI-H460 lung
# NCI-H522 lung = tested on: NCI-H522 lung
# NCI/ADR-RES ovarian = tested on: NCI/ADR-RES ovarian
# OVCAR-3 ovarian = tested on: OVCAR-3 ovarian
# OVCAR-4 ovarian = tested on: OVCAR-4 ovarian
# OVCAR-5 ovarian = tested on: OVCAR-5 ovarian
# OVCAR-8 ovarian = tested on: OVCAR-8 ovarian
# PC-3 prostate = tested on: PC-3 prostate
# RPMI-8226 leukemia = tested on: RPMI-8226 leukemia
# RXF 393 renal = tested on: RXF 393 renal
# SF-268 CNS = tested on: SF-268 CNS
# SF-539 CNS = tested on: SF-539 CNS
# SK-MEL-2 melanoma = tested on: SK-MEL-2 melanoma
# SK-MEL-28 melanoma = tested on: SK-MEL-28 melanoma
# SK-MEL-5 melanoma = tested on: SK-MEL-5 melanoma
# SK-OV-3 ovarian = tested on: SK-OV-3 ovarian
# SN12C renal = tested on: SN12C renal
# SNB-19 CNS = tested on: SNB-19 CNS
# SNB-75 CNS = tested on: SNB-75 CNS
# SW-620 colon = tested on: SW-620 colon
# T-47D breast = tested on: T-47D breast
# TK-10 renal = tested on: TK-10 renal
# U251 CNS = tested on: U251 CNS
# UACC-257 melanoma = tested on: UACC-257 melanoma
# UACC-62 melanoma = tested on: UACC-62 melanoma
# UO-31 renal = tested on: UO-31 renal
structure (smiles),measurement,setting,value
O=c1c2c3c(sc2n2c(CCl)nnc2n1Cc1ccccc1)CCCC3,GI50,786-0 renal,2.01 µM
same,TGI,786-0 renal,3.75 µM
same,GI50,A498 renal,9.17 µM
same,TGI,A498 renal,23.1 µM
same,GI50,A549 NSCLC,2.79 µM
same,TGI,A549 NSCLC,7.3 µM
same,GI50,ACHN renal,1.6 µM
same,TGI,ACHN renal,2.96 µM
same,GI50,BT-549 breast,2.41 µM
same,TGI,BT-549 breast,9.44 µM
same,GI50,CAKI-1 renal,2.9 µM
same,TGI,CAKI-1 renal,7.79 µM
same,GI50,CCRF-CEM leukemia,0.434 µM
same,GI50,COLO 205 colon,1.94 µM
same,TGI,COLO 205 colon,4.05 µM
same,GI50,DU-145 prostate,2.45 µM
same,TGI,DU-145 prostate,6.18 µM
same,GI50,EKVX NSCLC,7.96 µM
same,TGI,EKVX NSCLC,27.9 µM
same,GI50,HCC-2998 colon,1.74 µM
same,TGI,HCC-2998 colon,3.39 µM
same,GI50,HCT-116 colon,1.51 µM
same,TGI,HCT-116 colon,3.13 µM
same,GI50,HCT-15 colon,1.86 µM
same,TGI,HCT-15 colon,5.34 µM
same,GI50,HL-60(TB) leukemia,2.16 µM
same,TGI,HL-60(TB) leukemia,> 19.8 µM
same,GI50,HOP-62 NSCLC,3.55 µM
same,TGI,HOP-62 NSCLC,7.87 µM
same,GI50,HOP-92 NSCLC,1.83 µM
same,TGI,HOP-92 NSCLC,3.8 µM
same,GI50,HS 578T breast,1.92 µM
same,TGI,HS 578T breast,5.9 µM
same,GI50,HT29 colon,1.95 µM
same,TGI,HT29 colon,4.05 µM
same,GI50,IGROV1 ovarian,0.0645 µM
same,TGI,IGROV1 ovarian,1.53 µM
same,GI50,K-562 leukemia,2.33 µM
same,TGI,K-562 leukemia,5.39 µM
same,GI50,KM12 colon,2.39 µM
same,TGI,KM12 colon,6.05 µM
same,GI50,LOX IMVI melanoma,0.284 µM
same,TGI,LOX IMVI melanoma,1.32 µM
same,GI50,M14 melanoma,1.79 µM
same,TGI,M14 melanoma,5.43 µM
same,GI50,MALME-3M melanoma,3.48 µM
same,TGI,MALME-3M melanoma,10.7 µM
same,GI50,MCF7 breast,1.75 µM
same,TGI,MCF7 breast,4.54 µM
same,GI50,MDA-MB-231 breast,2.22 µM
same,TGI,MDA-MB-231 breast,5.23 µM
same,GI50,MDA-MB-435,3.4 µM
same,TGI,MDA-MB-435,11 µM
same,GI50,MOLT-4 leukemia,3.62 µM
same,TGI,MOLT-4 leukemia,17.1 µM
same,GI50,NCI-H226 lung,1.74 µM
same,TGI,NCI-H226 lung,4.37 µM
same,GI50,NCI-H23 lung,2.27 µM
same,TGI,NCI-H23 lung,8.43 µM
same,GI50,NCI-H460 lung,2.58 µM
same,TGI,NCI-H460 lung,7.98 µM
same,GI50,NCI-H522 lung,1.89 µM
same,TGI,NCI-H522 lung,4.17 µM
same,GI50,NCI/ADR-RES ovarian,3.84 µM
same,TGI,NCI/ADR-RES ovarian,> 51.1 µM
same,GI50,OVCAR-3 ovarian,1.76 µM
same,TGI,OVCAR-3 ovarian,3.21 µM
same,GI50,OVCAR-4 ovarian,2.79 µM
same,TGI,OVCAR-4 ovarian,7.74 µM
same,GI50,OVCAR-5 ovarian,2.34 µM
same,TGI,OVCAR-5 ovarian,5.23 µM
same,GI50,OVCAR-8 ovarian,2.28 µM
same,TGI,OVCAR-8 ovarian,6.19 µM
same,GI50,PC-3 prostate,1.85 µM
same,TGI,PC-3 prostate,4.01 µM
same,GI50,RPMI-8226 leukemia,1.97 µM
same,TGI,RPMI-8226 leukemia,5.05 µM
same,GI50,RXF 393 renal,1.98 µM
same,TGI,RXF 393 renal,4.17 µM
same,GI50,SF-268 CNS,1.83 µM
same,TGI,SF-268 CNS,3.72 µM
same,GI50,SF-539 CNS,3.24 µM
same,TGI,SF-539 CNS,10.1 µM
same,GI50,SK-MEL-2 melanoma,1.53 µM
same,TGI,SK-MEL-2 melanoma,2.98 µM
same,GI50,SK-MEL-28 melanoma,1.7 µM
same,TGI,SK-MEL-28 melanoma,3.16 µM
same,GI50,SK-MEL-5 melanoma,2.94 µM
same,TGI,SK-MEL-5 melanoma,7.62 µM
same,GI50,SK-OV-3 ovarian,13.4 µM
same,TGI,SK-OV-3 ovarian,48.8 µM
same,GI50,SN12C renal,1.62 µM
same,TGI,SN12C renal,3.86 µM
same,GI50,SNB-19 CNS,15.8 µM
same,TGI,SNB-19 CNS,32.1 µM
same,GI50,SNB-75 CNS,4.51 µM
same,TGI,SNB-75 CNS,9.03 µM
same,GI50,SW-620 colon,1.76 µM
same,TGI,SW-620 colon,3.51 µM
same,GI50,T-47D breast,2.5 µM
same,TGI,T-47D breast,6.5 µM
same,GI50,TK-10 renal,5.25 µM
same,TGI,TK-10 renal,10.7 µM
same,GI50,U251 CNS,1.6 µM
same,TGI,U251 CNS,3.03 µM
same,GI50,UACC-257 melanoma,2.12 µM
same,TGI,UACC-257 melanoma,4.29 µM
same,GI50,UACC-62 melanoma,1.99 µM
same,TGI,UACC-62 melanoma,5.64 µM
same,GI50,UO-31 renal,1.51 µM
same,TGI,UO-31 renal,2.88 µM
